The source of these data is patent US11179389B2, “Purine inhibitors of human phosphatidylinositol 3-kinase delta” (Merck Sharp & Dohme Corp., priority 2017, dated 2021).

Usually IC50 stands for the concentration that gives 50% inhibition.

For assay [1], the target named is PI3Kalpha (Homo sapiens (Human), UniProt P42336). Description: HTRF PI3K biochemical assay, alpha isoform (for selectivity ratio). Particulars: ratio PI3K-alpha IC50 value / PI3K-delta IC50 value. The source says:
(§1) HTRF PI3K Biochemical Assay to Measure Intrinsic Potency of Compound Inhibitors
(§2) The PI3-Kinase biochemical assays were developed to measure the intrinsic potency and compound dependent inhibition of the alpha, beta, delta, and gamma PI3K isoform enzymes. This assay was developed and further optimized from a kit produced by Upstate (Millipore catalog #33-047) (Millipore Sigma. Billerica Mass., USA) and has been configured for high throughput screening (HTS) and structure-activity relationship (SAR) screening. Briefly, this procedure exploits the exquisite specificity and high affinity binding of enzyme reaction […] phosphatidyl(3,4,5)triphosphate (PIP3) to the GRP1 pleckstrin homology (PH) domain to generate the signal. In the absence of PIP3, an HTRF (Homogeneous Time-Resolved Fluorescence energy transfer) complex is formed consisting of europium (Eu)-labeled anti-GST, GSTtagged GRP1-PH domain, biotin-PIP3 (biotinylated-PIP3) and streptavidin conjugated APC (Allophycocyanin). The native PIP3 produced by PI3-Kinase activity disrupts in a competitive manner the biotin-PIP3 from the pleckstrin homology (PH) domain, resulting in the loss of energy transfer (HTRF complex) and a decrease in the signal. The format of this assay is the same for all 4 isoforms of PI3K; the differences lie in the concentration of enzyme used to achieve robust assay window. The alpha, beta, and delta assays are run at 0.5, 1, and 0.3 nM enzymes and the gamma assay is run at 5 nM enzyme. The ATP concentration is 100 uM in the alpha, beta, and delta assays and 50 uM adenosine triphosphate (ATP) in the gamma assay. All reactions are run at 5 uM PIP2.
(§3) Compounds are serially diluted (3-fold in 100% DMSO) across a 384-well polypropylene source plated from column 3 to column 12 and column 13 to column 22, to yield 10 concentration dose response for each test compound. Columns 1, 2, 23 and 24 contain either only DMSO or pharmacological known control inhibitor. Once titrations are made, 2.5 nL of the compounds on 384 well plates are reformatted and transferred by acoustic dispense in quadruplicates to a 1536 assay plate (Greiner) to assay across all four PI3K isoform enzymes.
(§4) The PI3-Kinase biochemical assay was optimized using the HTRF kit provided by Upstate (Millipore). The assay kit contains six reagents: 1) 4×Reaction Buffer; 2) native PIP2 (substrate); 3) Stop (EDTA); 4) Detection Mix A (Streptavidin-APC); 5) Detection Mix B (Eu-labeled Anti-GST plus GST-tagged PH-domain): 6) Detection Mix C. In addition, the following items were obtained or purchased; PI3Kinase (catalog #'s alpha 14-602, beta 14-603, gamma 14-558 and delta 14-604 from Upstate Biotechnology now EMD Millipore, Mahopac, N.Y., USA), dithiothreitol (Sigma-Aldrich Corp. (St. Louis, Mo., USA) Catalog #D-5545), Adenosine-5′ triphosphate (InVitrogen (Waltham, Mass., USA), Cat#AS001 Å), native PIP3 (PI(3,4,5)P3, diC8, H^+, CELLSIGNALS, INC., (Columbus, Ohio, USA) Cat #907) DMSO ((Sigma-Aldrich Corp. (St. Louis. Mo., USA) Catalog #472301).
(§5) PI3Kinase Reaction Buffer is prepared by dilution the stock 1:4 with de-ionized water. DTT (DL-Dithiothreitol), phosphatidylinositol 4,5-bisphosphate (PIP2) and Biotin-PIP3 were added to 1536 assay plate at a final concentration of 5 mM, […] and 25 nM on the day of use. Enzyme addition and compound pre-incubation are initiated by the addition of 1.25 ul of PI3K (at twice its final concentration) in the 1× reaction buffer to all wells using a BioRaptor™. Plates are incubated at room temperature for 15 minutes. Reactions are initiated by addition of 1.25 ul of 2× substrate solution (PIP2 and ATP in 1× reaction buffer) using BioRaptor™. Plates are incubated in humidified chamber at room temperature for one hour. Reactions are quenched by addition of 0.625 uL of stop solution to all wells using the BioRaptor™. […]
(Time-resolved FRET reads energy transfer from a long-lived donor to a nearby acceptor.)

The target in assay [2] is PI3Kdelta (Homo sapiens (Human), UniProt O00329). In words: HTRF PI3K biochemical assay, delta isoform. Particulars: 0.3 nM enzyme, 100 uM ATP, 5 uM PIP2, form screened per table (Neutral or TFA salt).
Sequence of PI3Kdelta (O00329 whole entry, canonical isoform): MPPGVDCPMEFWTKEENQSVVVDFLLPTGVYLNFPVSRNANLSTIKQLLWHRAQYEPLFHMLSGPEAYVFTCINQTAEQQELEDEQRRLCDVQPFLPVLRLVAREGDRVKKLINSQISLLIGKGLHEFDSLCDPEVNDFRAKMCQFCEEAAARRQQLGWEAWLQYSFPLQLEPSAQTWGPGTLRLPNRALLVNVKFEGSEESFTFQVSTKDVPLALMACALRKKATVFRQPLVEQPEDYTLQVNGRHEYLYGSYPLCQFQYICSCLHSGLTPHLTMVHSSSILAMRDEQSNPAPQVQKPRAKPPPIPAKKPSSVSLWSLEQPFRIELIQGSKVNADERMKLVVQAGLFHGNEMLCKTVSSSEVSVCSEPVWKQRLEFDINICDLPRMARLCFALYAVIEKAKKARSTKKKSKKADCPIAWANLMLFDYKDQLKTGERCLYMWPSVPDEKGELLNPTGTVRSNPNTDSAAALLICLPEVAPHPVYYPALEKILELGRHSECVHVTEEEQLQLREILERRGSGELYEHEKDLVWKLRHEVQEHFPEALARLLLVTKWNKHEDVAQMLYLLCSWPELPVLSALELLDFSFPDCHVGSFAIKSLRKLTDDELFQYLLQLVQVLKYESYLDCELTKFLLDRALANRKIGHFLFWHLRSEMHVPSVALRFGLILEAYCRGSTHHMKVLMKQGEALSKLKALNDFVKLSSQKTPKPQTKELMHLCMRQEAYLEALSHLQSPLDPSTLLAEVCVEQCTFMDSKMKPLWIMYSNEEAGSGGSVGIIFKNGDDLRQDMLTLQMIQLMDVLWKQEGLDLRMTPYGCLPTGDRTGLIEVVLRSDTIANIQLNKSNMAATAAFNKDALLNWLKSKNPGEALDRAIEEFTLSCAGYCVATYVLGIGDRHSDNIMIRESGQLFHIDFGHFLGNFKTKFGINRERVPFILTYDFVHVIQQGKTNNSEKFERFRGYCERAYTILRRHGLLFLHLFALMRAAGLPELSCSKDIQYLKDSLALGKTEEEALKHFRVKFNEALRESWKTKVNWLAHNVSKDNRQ
Sequence of PI3Kdelta (P27986 whole entry partner, canonical isoform): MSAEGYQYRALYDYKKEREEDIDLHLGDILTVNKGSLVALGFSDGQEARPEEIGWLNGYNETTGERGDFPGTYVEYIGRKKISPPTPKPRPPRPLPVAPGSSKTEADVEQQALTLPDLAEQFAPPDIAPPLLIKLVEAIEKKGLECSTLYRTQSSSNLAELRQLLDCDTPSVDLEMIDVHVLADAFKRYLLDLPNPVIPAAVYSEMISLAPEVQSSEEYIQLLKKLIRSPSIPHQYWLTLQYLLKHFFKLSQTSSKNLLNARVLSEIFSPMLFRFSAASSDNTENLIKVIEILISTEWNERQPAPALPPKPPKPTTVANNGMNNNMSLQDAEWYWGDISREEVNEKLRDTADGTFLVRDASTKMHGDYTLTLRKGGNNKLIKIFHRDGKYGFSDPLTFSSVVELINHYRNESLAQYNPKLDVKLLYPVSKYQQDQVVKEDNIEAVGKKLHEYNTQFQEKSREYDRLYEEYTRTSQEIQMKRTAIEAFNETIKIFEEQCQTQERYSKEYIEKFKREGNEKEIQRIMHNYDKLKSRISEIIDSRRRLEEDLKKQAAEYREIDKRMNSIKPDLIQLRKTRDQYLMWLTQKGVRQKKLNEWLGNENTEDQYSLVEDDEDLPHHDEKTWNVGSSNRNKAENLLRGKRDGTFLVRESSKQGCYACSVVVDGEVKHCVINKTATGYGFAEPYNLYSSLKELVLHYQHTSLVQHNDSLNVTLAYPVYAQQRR
Source text: as §1, §2, §3, §4, §5

Sequence of PI3Kalpha (P42336 whole entry, canonical isoform): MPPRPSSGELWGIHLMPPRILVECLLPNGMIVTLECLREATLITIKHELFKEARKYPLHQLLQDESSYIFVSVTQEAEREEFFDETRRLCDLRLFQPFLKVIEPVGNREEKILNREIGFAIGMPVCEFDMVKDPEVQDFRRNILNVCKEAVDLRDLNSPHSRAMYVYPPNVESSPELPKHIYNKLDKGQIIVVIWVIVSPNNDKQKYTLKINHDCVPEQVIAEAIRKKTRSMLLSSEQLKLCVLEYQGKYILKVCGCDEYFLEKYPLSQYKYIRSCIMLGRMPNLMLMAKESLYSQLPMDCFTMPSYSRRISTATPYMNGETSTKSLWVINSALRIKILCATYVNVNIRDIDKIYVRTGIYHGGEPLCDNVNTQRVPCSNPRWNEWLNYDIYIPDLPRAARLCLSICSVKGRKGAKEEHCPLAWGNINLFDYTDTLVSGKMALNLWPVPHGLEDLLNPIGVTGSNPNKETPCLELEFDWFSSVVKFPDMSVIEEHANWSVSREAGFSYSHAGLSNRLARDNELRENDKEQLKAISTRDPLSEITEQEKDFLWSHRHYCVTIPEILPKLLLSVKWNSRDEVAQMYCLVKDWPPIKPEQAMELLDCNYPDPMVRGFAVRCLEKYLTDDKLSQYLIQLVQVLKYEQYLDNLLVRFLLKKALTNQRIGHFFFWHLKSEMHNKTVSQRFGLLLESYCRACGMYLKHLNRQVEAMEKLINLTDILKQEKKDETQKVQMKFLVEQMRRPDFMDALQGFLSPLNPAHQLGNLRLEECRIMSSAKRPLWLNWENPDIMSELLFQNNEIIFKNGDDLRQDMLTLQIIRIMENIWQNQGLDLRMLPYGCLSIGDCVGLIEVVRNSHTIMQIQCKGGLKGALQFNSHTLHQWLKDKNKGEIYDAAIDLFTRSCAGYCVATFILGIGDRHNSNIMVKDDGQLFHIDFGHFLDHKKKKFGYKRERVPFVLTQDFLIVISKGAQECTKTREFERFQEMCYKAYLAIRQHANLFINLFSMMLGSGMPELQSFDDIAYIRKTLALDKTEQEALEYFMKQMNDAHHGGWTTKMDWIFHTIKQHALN
Sequence of PI3Kalpha (P27986 whole entry partner, canonical isoform): as the sequence (P27986 whole entry partner, canonical isoform) above

`Cn1cc(-c2nc(N3CCC4(CCC(=O)N4CC4CC(F)(F)C4)CC3)cnc2C#N)cn1` [Compound 1-20, 5-{1-[(3,3-difluorocyclobutyl)methyl]-2-oxo-1,8-diazaspiro[4.5]dec-8-yl}-3-(1-methyl-1H-pyrazol-4-yl)pyrazine-2-carbonitrile]: in assay [1], the “Selectivity versus PI3Kalpha” value was above 10. For the same compound, the IC50 in assay [2] is 0.018 µM.
Regarding `Cn1cc(-c2nc(N3CCC4(CCC(=O)N4CC(F)(F)F)CC3)cnc2C#N)cn1` [Compound 1-21, 3-(1-methyl-1H-pyrazol-4-yl)-5-[2-oxo-1-(2,2,2-trifluoroethyl)-1,8-diazaspiro[4.5]dec-8-yl]pyrazine-2-carbonitrile], in assay [1], the “Selectivity versus PI3Kalpha” value is given as above 10. The IC50 in assay [2] turned out to be 0.037 µM.
On to `CCCN1C(=O)OCC12CCN(c1cnc(C#N)c(-c3cnn(C)c3)n1)CC2` [Compound 1-22, 3-(1-methyl-1H-pyrazol-4-yl)-5-(2-oxo-1-propyl-3-oxa-1,8-diazaspiro[4.5]dec-8-yl)pyrazine-2-carbonitrile], for which the “Selectivity versus PI3Kalpha” value in assay [1] is above 10. Besides, the IC50 in assay [2] came out at 0.03 µM.
For `Cn1cc(-c2nc(N3CCC4(CC3)COC(=O)N4CC3CCC3)cnc2C#N)cn1` [Compound 1-23, 5-[1-(cyclobutylmethyl)-2-oxo-3-oxa-1,8-diazaspiro[4.5]dec-8-yl]-3-(1-methyl-1H-pyrazol-4-yl)pyrazine-2-carbonitrile], the “Selectivity versus PI3Kalpha” value in assay [1] is on record as above 10. Besides, in assay [2], the IC50 is 0.018 µM.
On the same counts, the results for `Cn1cc(-c2nc(N3CCC4(CC3)COCC(=O)N4CC3CC3)cnc2C#N)cn1` [Compound 1-24, 5-[1-(cyclopropylmethyl)-2-oxo-4-oxa-1,9-diazaspiro[5.5]undec-9-yl]-3-(1-methyl-1H-pyrazol-4-yl)pyrazine-2-carbonitrile] are above 10 and 0.01 µM.
On to `Cn1cc(-c2nc(N3CCC(C)(N4CCOCC4)CC3)cnc2C#N)cn1` [Compound 1-25, 5-(4-methyl-4-morpholin-4-ylpiperidin-1-yl)-3-(1-methyl-1H-pyrazol-4-yl)pyrazine-2-carbonitrile], for which, in assay [1], the “Selectivity versus PI3Kalpha” value is on record as above 10. Further, in assay [2], the half-maximal inhibitory concentration (IC50) came out at 0.052 µM.
The matching figures for `Cn1cc(-c2nc(N3CCC(C)(N4CCCCC4)CC3)cnc2C#N)cn1` [Compound 1-26, 5-(4′-methyl-1,4′-bipiperidin-1′-yl)-3-(1-methyl-1H-pyrazol-4-yl)pyrazine-2-carbonitrile]: above 10 and 0.07 µM.
Consider `CO[C@H]1C[C@@H](C(=O)N2CCN(c3cnc(C#N)c(-c4cnn(C)c4)n3)C[C@H]2C)C1` [Compound 1-27, 5-{(3R)-4-[(cis-3-methoxycyclobutyl)carbonyl]-3-methylpiperazin-1-yl}-3-(1-methyl-1H-pyrazol-4-yl)pyrazine-2-carbonitrile], for which, in assay [1], the “Selectivity versus PI3Kalpha” value is reported as above 10. The 50% inhibitory concentration (IC50) in assay [2] was found to be 0.1 µM.
Turning to `C[C@@H]1CN(c2cnc(C#N)c(-c3cnn(C)c3)n2)CCN1C(=O)C1CC(F)(F)C1` [Compound 1-28, 5-{(3R)-4-[(3,3-difluorocyclobutyl)carbonyl]-3-methylpiperazin-1-yl}-3-(1-methyl-1H-pyrazol-4-yl)pyrazine-2-carbonitrile], in assay [1], the “Selectivity versus PI3Kalpha” value was above 10. Moreover, in assay [2], the concentration for half-maximal inhibition (IC50) amounted to 0.1 µM.
On the same counts, the results for `C[C@@H]1CN(c2cnc(C#N)c(-c3cnn(C)c3)n2)CCN1C(=O)[C@@H]1C[C@@H]1F` [Compound 1-29, 5-[(3R)-4-{[(1S,2S)-2-fluorocyclopropyl]carbonyl}-3-methylpiperazin-1-yl]-3-(1-methyl-1H-pyrazol-4-yl)pyrazine-2-carbonitrile] are above 10 and 0.029 µM.
The matching figures for `CCC(=O)N1CCN(c2cnc(C#N)c(-c3cnn(C)c3)n2)C[C@H]1C` [Compound 1-30, 5-[(3R)-3-methyl-4-propanoylpiperazin-1-yl]-3-(1-methyl-1H-pyrazol-4-yl)pyrazine-2-carbonitrile]: above 10 and 0.15 µM.
